Assay in all cases: NCI-60 cell line screen, 48 h
Experiment [1] deals with RPMI-8226 leukemia.
The subject of experiment [2] is SK-MEL-2 melanoma.
Experiment [3] deals with SF-295 CNS.
Experiment [4] deals with U251 CNS.
Experiment [5] has as its system NCI-H522 lung.
In experiment [6] the test system is HL-60(TB) leukemia.
Experiment [7] has as its system UACC-62 melanoma.
Experiment [8] has as its system CAKI-1 renal.
For experiment [9], the system named is EKVX NSCLC.
Experiment [10] deals with HS 578T breast.

The structures appear in SMILES notation.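 Tested at 5 concentrations; 48 h exposure; 96-well plates; endpoints linearly interpolated, else capped at highest concentration. GI50 marks 50% less growth. TGI marks complete inhibition of growth.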

With `CCOC(=O)C(NC(=O)c1[nH]cnc1/N=N/N(C)C)C(C)C` (stereo not given), the TGI in experiment [1], in experiment [2], in experiment [3], in experiment [4], in experiment [5] and in experiment [6] was greater than 100 µM in each case. The TGI in experiment [7], in experiment [8] and in experiment [9] was greater than 100 µM in each case.

With `COc1ccc2nc3ccccc3c(NCCCCN(C)CCCl)c2c1`, the TGI in experiment [1] came out at 0.544 µM; in experiment [2], 0.666 µM; in experiment [3] it was 1.17 µM; in [4] it was 0.251 µM; in [5] it was 0.0763 µM; in [6], 0.0435 µM. Besides, the TGI in experiment [7] was determined as 0.305 µM; in experiment [8] it was 0.381 µM; in [9], 3.05 µM.

For `CO[C@@]12[C@@H]3NC3CN1C1=C(C(=O)C(N)=C(C)C1=O)[C@@H]2COC(N)=O` (stereo not given in full), the GI50 was 1.84 µM in experiment [1]; 1.91 µM in [2]; 6.32 µM in experiment [10]; 0.325 µM in [5]; 0.0862 µM in experiment [6]; 3.09 µM in experiment [9]. The TGI in experiment [1] is 27.8 µM; in [2], 4.41 µM; in [10], greater than 100 µM; in experiment [5], 2.13 µM; in experiment [6], 7.43 µM; in experiment [8], 2.08 µM. In [9], this compound yielded a TGI of 20.2 µM.

`CC1=NN(C(=O)c2ccccc2O)C(=O)/C1=C/c1cccc([N+](=O)[O-])c1`: the TGI is greater than 100 µM in [1]; greater than 21.9 µM in experiment [2]; greater than 100 µM in experiment [3]; greater than 100 µM in experiment [4]; 54.6 µM in experiment [5]; greater than 62.9 µM in experiment [6]. For the same compound, the TGI in experiment [7] is 27.1 µM; in [8] it was greater than 100 µM; in experiment [9], greater than 100 µM.

For the compound `CC1(C)CC[C@]2(C(N)=O)CC[C@]3(C)C(=CC[C@@H]4[C@@]5(C)C/C(=C/c6ccncc6)C(=O)C(C)(C)[C@@H]5CC[C@]43C)[C@@H]2C1`, the GI50 in [1] was 1.73 µM; in experiment [2] it was 1.92 µM; in experiment [3] it was 1.67 µM; in [4], 1.69 µM; in experiment [10] it was 3.07 µM; in [5], 2.28 µM. The GI50 in experiment [6] is 1.98 µM; in experiment [7], 1.61 µM; in experiment [9], 2.44 µM. Moreover, the TGI is 4.44 µM in experiment [1]; 3.97 µM in experiment [2]; 3.42 µM in experiment [3]; 3.27 µM in experiment [4]; greater than 100 µM in experiment [10]; 7.76 µM in experiment [5]. The figures for the TGI in [6], in experiment [7] and in experiment [9] were 4.59 µM, 3.34 µM and 9.46 µM, respectively.

With `COc1cc(NC(=O)Nc2cnc(Nc3ccc(N4CCOCC4)cc3)nc2Oc2cccc(OC)c2)cc(OC)c1`, the GI50 in experiment [2] was 1.74 µM; in experiment [3] it was 1.19 µM; in experiment [4] it was 1.63 µM; in experiment [10], 1.97 µM; in experiment [5] it was 1.44 µM; in experiment [6], 2.76 µM. The GI50 in experiment [7] is 1.35 µM; in [9] it was 2.17 µM. Further, the TGI in experiment [2] was 8.67 µM; in experiment [3], 3.61 µM; in [4] it was 5.05 µM; in [10], 20.6 µM; in experiment [5], 6.25 µM; in [6] it was greater than 50 µM. For the same compound, the values for the TGI in experiment [7] and in experiment [9] were 4.04 µM and 24.5 µM, respectively.

Regarding `COc1cc2cc3c4c(cc(OC)c(OC)c4c2cc1OC)CCN3C(=O)CCC(=O)NCCCN(C)C`, the TGI in experiment [1] is greater than 100 µM; in experiment [2], 41.9 µM; in experiment [3], greater than 100 µM; in experiment [4], greater than 100 µM; in [5], 45.8 µM; in experiment [6], 56.9 µM. Also, the TGI in experiment [7], in [8] and in [9] was greater than 100 µM each time.

Consider `CC1COCC(C)N1C1=C(Cl)C(=O)c2ccccc2C1=O` (stereo not given), for which the GI50 in experiment [1] is 2.04 µM; in experiment [3], 2.94 µM; in experiment [4], 11.6 µM; in experiment [10], 6.38 µM; in [5], 1.59 µM; in experiment [6], 2.02 µM. Also, the results for the GI50 in experiment [7], in experiment [8] and in [9] were 5.85 µM, 1.56 µM and 1.42 µM, respectively. Moreover, the TGI in experiment [1] is 5.68 µM; in experiment [3], 17.7 µM; in [4] it was 25.7 µM; in [10], 50.5 µM; in experiment [5] it was 3.02 µM; in experiment [6] it was 5.03 µM. The figures for the TGI in [7], in [8] and in experiment [9] were 18.8 µM, 2.97 µM and 2.87 µM, respectively.

`COc1ccccc1NC(=O)C(CC(C(=O)Nc1ccccc1OC)/C(C)=N/Nc1ccc([N+](=O)[O-])cc1[N+](=O)[O-])/C(C)=N/Nc1ccc([N+](=O)[O-])cc1[N+](=O)[O-]` (stereo not given): the TGI in experiment [1], in experiment [2], in experiment [3], in experiment [4], in experiment [5] and in experiment [6] was greater than 100 µM in each case. Further, the TGI in [7], in [8] and in experiment [9] was greater than 100 µM each time.

As for `COC(=O)/C(=N/NC(N)=O)C(C(=O)OC)C(=O)C(=O)Nc1ccc(Cl)cc1` (stereo not given), the TGI in [1], in [2], in experiment [3], in experiment [4], in experiment [5] and in experiment [6] was greater than 100 µM throughout. Moreover, the TGI in [7], in [8] and in [9] was greater than 100 µM throughout.

Consider `C/C=C1\C(=O)OC2CCN3CCC(COC(=O)C(C)(O)C(C)C1O)C23` (stereo not given), for which the TGI in experiment [2], in experiment [3], in experiment [4], in experiment [10], in experiment [5] and in experiment [6] was greater than 100 µM each time. The TGI in experiment [7], in experiment [8] and in experiment [9] was greater than 100 µM each time.

Turning to `C=[CH][Sn]([CH]=C)([O]c1cccc2cccnc12)[O]c1cccc2cccnc12`, the GI50 in experiment [1] is 0.877 µM; in [2], 1.72 µM; in experiment [3], 5.27 µM; in experiment [4], 2.58 µM; in [5], 0.93 µM; in [6], 0.619 µM. Also, the figures for the GI50 in experiment [7], in experiment [8] and in experiment [9] were 0.964 µM, 6.73 µM and 5.58 µM, respectively. Further, the TGI in [1] was 4.71 µM; in experiment [2], 7.87 µM; in experiment [3] it was 19.4 µM; in [4], 6.67 µM; in experiment [5] it was 3.36 µM; in experiment [6], 2.91 µM. For the same compound, the TGI in experiment [7] is 2.5 µM; in experiment [8], 22.8 µM; in experiment [9], 17.2 µM.

For `O=c1c2ccccc2oc2ccc(OCCCCCCN3CCCCCC3)cc12`, the GI50 in experiment [1] is 2.24 µM; in experiment [2], 3.05 µM; in experiment [3], 2.16 µM; in experiment [4], 3.28 µM; in experiment [10], 7.5 µM; in experiment [5], 2.82 µM. Also, the values for the GI50 in experiment [6], in experiment [7] and in [9] were 1.84 µM, 2.29 µM and 2.88 µM, respectively. In addition, the TGI in [1] was 5.78 µM; in [2] it was 9.75 µM; in [3] it was 5.87 µM; in experiment [4], 11.5 µM; in experiment [10], 36.7 µM; in experiment [5], 11.5 µM. Moreover, the results for the TGI in experiment [6], in [7] and in [9] were 3.97 µM, 4.78 µM and 13.9 µM, respectively.

For the compound `CCOc1ccc(C(CN2CCOCC2)C(C)=O)cc1OC` (stereo not given), the TGI is 83.5 µM in experiment [1]; 28.4 µM in experiment [2]; greater than 100 µM in [3]; 31.9 µM in experiment [4]; 2.46 µM in experiment [5]; 17 µM in experiment [6]. Also, the figures for the TGI in [7], in experiment [8] and in [9] were 32.8 µM, 23.4 µM and 50.3 µM, respectively.

As for `CN(C=O)/C=C/c1cc(O)ccc1O`, the TGI was 75.6 µM in [1]; 59.5 µM in experiment [2]; 47.7 µM in experiment [3]; greater than 69.7 µM in experiment [4]; 9.37 µM in experiment [5]; 40.8 µM in experiment [6]. Moreover, the figures for the TGI in experiment [7], in experiment [8] and in experiment [9] were 46.9 µM, 38.9 µM and 63.8 µM, respectively.

As to `CCCCCCCCCCCCCCCCOC(=O)c1cc(O)cc(C(=O)OCCCCCCCCCCCCCCCC)c1`, the TGI in experiment [1], in experiment [2], in [3], in experiment [4], in experiment [5] and in experiment [6] was greater than 100 µM in each case. Further, the TGI in experiment [7], in experiment [8] and in experiment [9] was greater than 100 µM each time.

As to `S=c1nc(-c2ccnc(-c3nc(=S)[nH][nH]3)c2)[nH][nH]1`, the TGI in experiment [1], in experiment [2], in [3], in experiment [4], in experiment [5] and in [6] was greater than 100 µM each time. Moreover, the TGI in experiment [7], in experiment [8] and in experiment [9] was greater than 100 µM throughout.

Turning to `C[N+](C)(C)CC1CCCC(C[N+](C)(C)C)C1O` (stereo not given), the TGI in experiment [1], in experiment [2], in experiment [3], in [4], in [5] and in experiment [6] was greater than 100 µM each time. The TGI in experiment [7], in experiment [8] and in experiment [9] was greater than 100 µM in each case.

For the compound `CN1CCN(c2nc(-c3ccncc3)nc3sc4c(c23)CCCCCC4)CC1`, the GI50 was 8.39 µM in experiment [1]; 14.6 µM in experiment [2]; 9.29 µM in [4]; 2.3 µM in experiment [10]; 12 µM in experiment [5]; 12.6 µM in [6]. Besides, the GI50 in experiment [7] is 11 µM; in experiment [8], 3.44 µM. For the same compound, the TGI was 26.9 µM in [1]; 28.2 µM in [2]; 25 µM in experiment [4]; 13.9 µM in experiment [10]; 24.6 µM in [5]; 29.8 µM in experiment [6]. Further, the TGI in experiment [7] was determined as 24 µM; in experiment [8] it was 19.4 µM.

For the compound `CC1CC2(C)CC(=O)C1C1C(=O)N(CCN3CCCCC3)C(=O)C12` (stereo not given), the GI50 in [2], in [3], in experiment [4], in experiment [10], in [5] and in experiment [6] was greater than 100 µM in each case. Besides, the GI50 in experiment [7], in [8] and in experiment [9] was greater than 100 µM throughout. For the same compound, the TGI in [2], in experiment [3], in [4], in experiment [10], in experiment [5] and in experiment [6] was greater than 100 µM in each case. In addition, the TGI in experiment [7], in experiment [8] and in experiment [9] was greater than 100 µM in each case.

`N=C1C=C(N)C(=O)c2[nH]c(=O)ccc21`: the TGI in [2] is 4.48 µM; in experiment [3] it was 31.2 µM; in experiment [4], 3.6 µM; in experiment [10] it was greater than 100 µM; in [5], 3.54 µM; in experiment [6] it was 4.87 µM. Further, the TGI in experiment [7] turned out to be 4.61 µM; in [8], 13 µM; in [9], 3.55 µM.

Take `CNC(=O)CN(CC(N)=O)C(N)=O`: the TGI in experiment [1], in experiment [2], in experiment [3], in experiment [4], in experiment [5] and in experiment [6] was greater than 100 µM each time. For the same compound, the TGI in [7], in experiment [8] and in experiment [9] was greater than 100 µM in each case.

Consider `O=S(=O)(c1ccc(O)c(C=Nc2ccc(Cl)cc2)c1)c1ccc(O)c(C=Nc2ccc(Cl)cc2)c1`, for which the TGI in experiment [1], in [2], in [3], in experiment [4], in experiment [5] and in experiment [6] was greater than 100 µM throughout. Besides, the TGI in experiment [7], in experiment [8] and in [9] was greater than 100 µM in each case.

Source of the values: PubChem BioAssay (NCI).
